# Test results from the kinase profiling compilation of Christmann-Franck et al. (2016).
# Assays:
# Assay in all cases: KINOMEscan competition binding
# AAK1 (human) = AAK1 (human) (UniProt Q2M2I8); conditions: compound 1.0 µM
# ANKK1 (human) = ANKK1 (human) (UniProt Q8NFD2); conditions: compound 1.0 µM
# AURKB (human) = AURKB (human) (UniProt Q96GD4); conditions: compound 1.0 µM
# BLK (human) = BLK (human) (UniProt P51451); conditions: compound 1.0 µM
# CDK14 (human) = CDK14 (human) (UniProt O94921); conditions: compound 1.0 µM
# CDK3 (human) = CDK3 (human) (UniProt Q00526); conditions: compound 1.0 µM
# CDK4 CCND3 (human) = CDK4 CCND3 (human) (UniProt P11802+P30281); conditions: compound 1.0 µM
# CDK8 (human) = CDK8 (human) (UniProt P49336); conditions: compound 1.0 µM
# CLK3 (human) = CLK3 (human) (UniProt P49761); conditions: compound 1.0 µM
# CSK (human) = CSK (human) (UniProt P41240); conditions: compound 1.0 µM
# EGFR (human) = EGFR (human) (UniProt P00533); conditions: compound 1.0 µM
# EPHB4 (human) = EPHB4 (human) (UniProt P54760); conditions: compound 1.0 µM
# ERBB3 (human) = ERBB3 (human) (UniProt P21860); conditions: compound 1.0 µM
# ERBB4 (human) = ERBB4 (human) (UniProt Q15303); conditions: compound 1.0 µM
# HUNK (human) = HUNK (human) (UniProt P57058); conditions: compound 1.0 µM
# ICK (human) = ICK (human) (UniProt Q9UPZ9); conditions: for kinase still bound, per cent of control: compound 1.0 µM
# IRAK3 (human) = IRAK3 (human) (UniProt Q9Y616); conditions: compound 1.0 µM
# KDR (human) = KDR (human) (UniProt P35968); conditions: compound 1.0 µM
# [1] = test system: KIT (human), P10721 [V559D/V654A]; conditions: compound 1.0 µM
# MAP2K3 (human) = MAP2K3 (human) (UniProt P46734); conditions: compound 1.0 µM
# MAP2K7 (human) = MAP2K7 (human) (UniProt O14733); conditions: compound 1.0 µM
# MAP3K10 (human) = MAP3K10 (human) (UniProt Q02779); conditions: compound 1.0 µM
# MAP3K13 (human) = MAP3K13 (human) (UniProt O43283); conditions: compound 1.0 µM
# MAP4K4 (human) = MAP4K4 (human) (UniProt O95819); conditions: compound 1.0 µM
# MAPK4 (human) = MAPK4 (human) (UniProt P31152); conditions: compound 1.0 µM
# MARK2 (human) = MARK2 (human) (UniProt Q7KZI7); conditions: compound 1.0 µM
# MET (human) = MET (human) (UniProt P08581); conditions: compound 1.0 µM
# NEK5 (human) = NEK5 (human) (UniProt Q6P3R8); conditions: compound 1.0 µM
# NIM1 (human) = NIM1 (human) (UniProt Q8IY84); conditions: compound 1.0 µM
# NTRK3 (human) = NTRK3 (human) (UniProt Q16288); conditions: compound 1.0 µM
# PDGFRA (human) = PDGFRA (human) (UniProt P16234); conditions: compound 1.0 µM
# PDPK1 (human) = PDPK1 (human) (UniProt O15530); conditions: compound 1.0 µM
# PIK3CB (human) = PIK3CB (human) (UniProt P42338); conditions: compound 1.0 µM
# PIK3CD (human) = PIK3CD (human) (UniProt O00329); conditions: compound 1.0 µM
# PIP4K2C (human) = PIP4K2C (human) (UniProt Q8TBX8); conditions: for kinase still bound, per cent of control: compound 1.0 µM
# PKMYT1 (human) = PKMYT1 (human) (UniProt Q99640); conditions: compound 1.0 µM
# PLK2 (human) = PLK2 (human) (UniProt Q9NYY3); conditions: compound 1.0 µM
# PRKACB (human) = PRKACB (human) (UniProt P22694); conditions: compound 1.0 µM
# PRKCQ (human) = PRKCQ (human) (UniProt Q04759); conditions: compound 1.0 µM
# PRKX (human) = PRKX (human) (UniProt P51817); conditions: compound 1.0 µM
# RPS6KA4 KD2 (human) = RPS6KA4 KD2 (human) (UniProt O75676); conditions: compound 1.0 µM
# STK24 (human) = STK24 (human) (UniProt Q9Y6E0); conditions: compound 1.0 µM
# TXK (human) = TXK (human) (UniProt P42681); conditions: compound 1.0 µM
# MAP4K4 (human), sequence (O95819 whole entry, looked up): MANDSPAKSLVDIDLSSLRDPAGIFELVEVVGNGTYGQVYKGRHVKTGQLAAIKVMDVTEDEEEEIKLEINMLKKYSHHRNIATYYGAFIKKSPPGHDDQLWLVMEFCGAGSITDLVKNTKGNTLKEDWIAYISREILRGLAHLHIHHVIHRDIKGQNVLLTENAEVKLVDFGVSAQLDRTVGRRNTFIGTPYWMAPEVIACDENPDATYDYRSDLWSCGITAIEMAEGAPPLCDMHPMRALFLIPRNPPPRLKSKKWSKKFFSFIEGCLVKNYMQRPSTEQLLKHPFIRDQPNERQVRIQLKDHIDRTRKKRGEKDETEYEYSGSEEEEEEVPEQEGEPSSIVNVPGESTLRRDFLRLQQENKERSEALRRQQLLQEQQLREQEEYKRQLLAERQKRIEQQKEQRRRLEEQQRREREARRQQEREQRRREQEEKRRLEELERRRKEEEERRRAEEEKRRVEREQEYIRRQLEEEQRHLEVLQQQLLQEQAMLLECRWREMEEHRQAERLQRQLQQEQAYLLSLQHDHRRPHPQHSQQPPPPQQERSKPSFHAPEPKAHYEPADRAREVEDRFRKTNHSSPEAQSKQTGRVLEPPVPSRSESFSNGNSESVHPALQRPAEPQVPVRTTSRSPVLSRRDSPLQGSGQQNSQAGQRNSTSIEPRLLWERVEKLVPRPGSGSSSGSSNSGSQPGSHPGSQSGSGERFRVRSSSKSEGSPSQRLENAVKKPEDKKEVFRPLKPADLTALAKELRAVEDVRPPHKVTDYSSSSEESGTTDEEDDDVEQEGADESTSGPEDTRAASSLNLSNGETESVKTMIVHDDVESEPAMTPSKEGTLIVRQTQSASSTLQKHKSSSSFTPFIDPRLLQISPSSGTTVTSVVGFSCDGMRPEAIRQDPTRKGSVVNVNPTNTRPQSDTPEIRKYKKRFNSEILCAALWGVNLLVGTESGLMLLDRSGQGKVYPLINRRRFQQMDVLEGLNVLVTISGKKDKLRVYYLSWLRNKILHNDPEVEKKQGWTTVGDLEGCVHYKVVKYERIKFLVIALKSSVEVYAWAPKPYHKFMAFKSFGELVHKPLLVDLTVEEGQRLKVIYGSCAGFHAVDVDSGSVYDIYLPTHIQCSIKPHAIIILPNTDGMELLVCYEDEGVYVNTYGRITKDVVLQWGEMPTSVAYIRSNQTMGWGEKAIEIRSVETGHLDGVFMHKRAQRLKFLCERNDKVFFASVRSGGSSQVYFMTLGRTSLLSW
# CDK3 (human), sequence (Q00526 whole entry, looked up): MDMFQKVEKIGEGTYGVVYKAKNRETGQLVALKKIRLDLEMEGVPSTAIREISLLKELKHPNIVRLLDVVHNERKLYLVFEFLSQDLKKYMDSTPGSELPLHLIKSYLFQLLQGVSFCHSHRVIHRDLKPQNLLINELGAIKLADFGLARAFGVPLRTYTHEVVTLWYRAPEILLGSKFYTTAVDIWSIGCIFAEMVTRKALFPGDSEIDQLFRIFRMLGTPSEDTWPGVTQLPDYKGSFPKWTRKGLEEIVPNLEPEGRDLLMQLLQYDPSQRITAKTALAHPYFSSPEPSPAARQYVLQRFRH
# EPHB4 (human), sequence (P54760 whole entry, looked up): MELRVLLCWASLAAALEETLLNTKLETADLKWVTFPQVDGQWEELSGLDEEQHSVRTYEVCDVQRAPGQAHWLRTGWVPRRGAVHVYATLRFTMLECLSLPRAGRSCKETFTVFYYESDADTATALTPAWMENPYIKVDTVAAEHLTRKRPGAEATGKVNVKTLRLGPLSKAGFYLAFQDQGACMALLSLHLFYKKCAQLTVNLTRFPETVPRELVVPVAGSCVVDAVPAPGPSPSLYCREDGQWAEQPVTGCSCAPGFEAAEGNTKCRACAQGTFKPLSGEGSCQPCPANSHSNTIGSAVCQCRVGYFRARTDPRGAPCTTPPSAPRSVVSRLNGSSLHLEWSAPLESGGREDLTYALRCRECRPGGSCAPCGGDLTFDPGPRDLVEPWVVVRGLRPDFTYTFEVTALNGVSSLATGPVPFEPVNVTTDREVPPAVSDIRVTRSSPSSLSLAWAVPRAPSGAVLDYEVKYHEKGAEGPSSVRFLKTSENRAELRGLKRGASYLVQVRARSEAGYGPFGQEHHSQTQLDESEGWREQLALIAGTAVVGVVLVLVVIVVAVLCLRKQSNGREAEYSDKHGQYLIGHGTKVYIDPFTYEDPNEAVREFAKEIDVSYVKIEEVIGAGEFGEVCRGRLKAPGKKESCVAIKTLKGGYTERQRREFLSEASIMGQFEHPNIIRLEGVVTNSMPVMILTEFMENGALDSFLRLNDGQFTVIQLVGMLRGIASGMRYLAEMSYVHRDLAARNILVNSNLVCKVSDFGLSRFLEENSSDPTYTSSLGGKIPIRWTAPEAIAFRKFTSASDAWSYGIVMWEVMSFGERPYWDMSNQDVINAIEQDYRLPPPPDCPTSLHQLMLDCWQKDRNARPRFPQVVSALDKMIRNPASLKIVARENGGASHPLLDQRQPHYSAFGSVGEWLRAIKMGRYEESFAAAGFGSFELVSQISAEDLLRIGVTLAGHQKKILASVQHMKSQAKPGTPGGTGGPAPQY
# PDGFRA (human), sequence (P16234 whole entry, looked up): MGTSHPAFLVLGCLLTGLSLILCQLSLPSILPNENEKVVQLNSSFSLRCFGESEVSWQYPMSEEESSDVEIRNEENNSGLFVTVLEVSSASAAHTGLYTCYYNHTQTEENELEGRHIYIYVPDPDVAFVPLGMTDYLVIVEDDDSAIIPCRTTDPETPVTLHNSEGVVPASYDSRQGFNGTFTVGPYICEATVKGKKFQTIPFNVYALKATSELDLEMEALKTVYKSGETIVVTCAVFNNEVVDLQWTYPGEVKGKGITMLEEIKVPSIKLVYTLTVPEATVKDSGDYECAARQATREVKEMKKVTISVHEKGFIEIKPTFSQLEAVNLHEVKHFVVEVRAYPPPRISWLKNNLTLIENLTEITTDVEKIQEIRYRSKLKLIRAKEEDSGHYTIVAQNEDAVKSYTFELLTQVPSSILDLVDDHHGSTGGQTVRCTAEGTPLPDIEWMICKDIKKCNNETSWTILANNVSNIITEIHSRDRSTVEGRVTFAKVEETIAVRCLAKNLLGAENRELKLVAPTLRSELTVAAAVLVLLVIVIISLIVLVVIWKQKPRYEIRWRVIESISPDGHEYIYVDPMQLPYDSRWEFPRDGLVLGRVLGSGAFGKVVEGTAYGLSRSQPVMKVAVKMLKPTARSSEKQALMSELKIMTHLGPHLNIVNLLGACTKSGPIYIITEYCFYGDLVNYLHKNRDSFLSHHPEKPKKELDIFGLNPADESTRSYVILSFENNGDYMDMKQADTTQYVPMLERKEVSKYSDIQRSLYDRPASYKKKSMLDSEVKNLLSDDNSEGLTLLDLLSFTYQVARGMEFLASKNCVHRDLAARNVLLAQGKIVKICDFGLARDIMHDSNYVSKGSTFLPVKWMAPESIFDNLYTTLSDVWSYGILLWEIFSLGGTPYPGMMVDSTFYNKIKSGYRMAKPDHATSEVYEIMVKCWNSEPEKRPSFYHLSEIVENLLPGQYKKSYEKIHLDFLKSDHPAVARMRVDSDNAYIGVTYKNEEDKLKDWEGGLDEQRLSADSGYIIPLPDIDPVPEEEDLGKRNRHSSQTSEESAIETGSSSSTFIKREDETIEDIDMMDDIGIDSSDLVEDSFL
# MAP2K7 (human), sequence (O14733 whole entry, looked up): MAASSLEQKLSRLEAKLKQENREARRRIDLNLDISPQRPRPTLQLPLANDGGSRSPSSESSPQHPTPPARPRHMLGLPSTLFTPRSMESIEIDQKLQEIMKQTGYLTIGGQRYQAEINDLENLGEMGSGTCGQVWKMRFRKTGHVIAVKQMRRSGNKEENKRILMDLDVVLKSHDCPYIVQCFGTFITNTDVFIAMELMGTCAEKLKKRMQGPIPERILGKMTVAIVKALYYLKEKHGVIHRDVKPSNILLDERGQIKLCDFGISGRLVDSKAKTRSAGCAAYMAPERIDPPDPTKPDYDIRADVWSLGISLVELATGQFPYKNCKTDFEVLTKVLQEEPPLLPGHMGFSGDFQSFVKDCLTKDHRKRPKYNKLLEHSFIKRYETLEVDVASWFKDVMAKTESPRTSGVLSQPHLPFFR
# PIP4K2C (human), sequence (Q8TBX8 whole entry, looked up): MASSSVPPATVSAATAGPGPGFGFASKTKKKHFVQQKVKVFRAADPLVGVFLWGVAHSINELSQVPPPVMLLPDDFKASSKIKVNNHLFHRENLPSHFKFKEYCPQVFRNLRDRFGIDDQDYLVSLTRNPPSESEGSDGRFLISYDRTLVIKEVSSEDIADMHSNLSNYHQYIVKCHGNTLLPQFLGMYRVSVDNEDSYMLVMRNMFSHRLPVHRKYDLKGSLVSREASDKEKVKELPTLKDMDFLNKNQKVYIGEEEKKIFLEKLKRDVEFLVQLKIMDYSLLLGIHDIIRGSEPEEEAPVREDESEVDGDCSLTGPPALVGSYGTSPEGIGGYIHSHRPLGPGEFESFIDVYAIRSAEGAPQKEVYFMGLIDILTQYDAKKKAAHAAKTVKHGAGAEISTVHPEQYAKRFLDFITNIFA
# MAPK4 (human), sequence (P31152 whole entry, looked up): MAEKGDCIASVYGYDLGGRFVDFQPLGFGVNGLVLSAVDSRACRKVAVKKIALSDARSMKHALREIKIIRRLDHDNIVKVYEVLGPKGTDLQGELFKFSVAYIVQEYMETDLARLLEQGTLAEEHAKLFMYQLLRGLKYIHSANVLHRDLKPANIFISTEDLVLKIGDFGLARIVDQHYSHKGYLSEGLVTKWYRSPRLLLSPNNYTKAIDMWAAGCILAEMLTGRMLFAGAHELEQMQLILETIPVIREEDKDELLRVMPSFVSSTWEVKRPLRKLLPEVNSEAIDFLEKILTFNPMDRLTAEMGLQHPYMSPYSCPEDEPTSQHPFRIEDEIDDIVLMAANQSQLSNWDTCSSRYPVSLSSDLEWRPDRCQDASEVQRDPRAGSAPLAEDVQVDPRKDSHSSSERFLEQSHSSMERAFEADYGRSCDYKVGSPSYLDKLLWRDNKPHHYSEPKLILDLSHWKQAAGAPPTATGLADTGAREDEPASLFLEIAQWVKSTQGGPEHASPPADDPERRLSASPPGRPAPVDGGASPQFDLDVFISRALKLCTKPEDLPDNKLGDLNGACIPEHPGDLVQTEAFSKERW
structure (smiles),measurement,setting,value
CN(C)C/C=C/C(=O)Nc1cccc(C(=O)Nc2ccc(Nc3nccc(/C(C#N)=C4\Nc5ccccc5S4)n3)cc2)c1,"kinase still bound, per cent of control",AAK1 (human),100%
same,"kinase still bound, per cent of control",ANKK1 (human),100%
same,"kinase still bound, per cent of control",AURKB (human),83%
same,"kinase still bound, per cent of control",BLK (human),100%
same,"kinase still bound, per cent of control",CDK14 (human),100%
same,"kinase still bound, per cent of control",CDK3 (human),100%
same,"kinase still bound, per cent of control",CDK4 CCND3 (human),100%
same,"kinase still bound, per cent of control",CDK8 (human),100%
same,"kinase still bound, per cent of control",CLK3 (human),100%
same,"kinase still bound, per cent of control",CSK (human),100%
same,"kinase still bound, per cent of control",EGFR (human),81%
same,"kinase still bound, per cent of control",EPHB4 (human),100%
same,"kinase still bound, per cent of control",ERBB3 (human),74%
same,"kinase still bound, per cent of control",ERBB4 (human),100%
same,"kinase still bound, per cent of control",HUNK (human),99%
same,"kinase still bound, per cent of control",ICK (human),100%
same,"kinase still bound, per cent of control",IRAK3 (human),51%
same,"kinase still bound, per cent of control",KDR (human),55%
same,"kinase still bound, per cent of control",[1],100%
same,"kinase still bound, per cent of control",MAP2K3 (human),88%
same,"kinase still bound, per cent of control",MAP2K7 (human),100%
same,"kinase still bound, per cent of control",MAP3K10 (human),68%
same,"kinase still bound, per cent of control",MAP3K13 (human),100%
same,"kinase still bound, per cent of control",MAP4K4 (human),100%
same,"kinase still bound, per cent of control",MAPK4 (human),100%
same,"kinase still bound, per cent of control",MARK2 (human),100%
same,"kinase still bound, per cent of control",MET (human),92%
same,"kinase still bound, per cent of control",NEK5 (human),100%
same,"kinase still bound, per cent of control",NIM1 (human),86%
same,"kinase still bound, per cent of control",NTRK3 (human),97%
same,"kinase still bound, per cent of control",PDGFRA (human),100%
same,"kinase still bound, per cent of control",PDPK1 (human),100%
same,"kinase still bound, per cent of control",PIK3CB (human),100%
same,"kinase still bound, per cent of control",PIK3CD (human),100%
same,"kinase still bound, per cent of control",PIP4K2C (human),35%
same,"kinase still bound, per cent of control",PKMYT1 (human),100%
same,"kinase still bound, per cent of control",PLK2 (human),65%
same,"kinase still bound, per cent of control",PRKACB (human),100%
same,"kinase still bound, per cent of control",PRKCQ (human),100%
same,"kinase still bound, per cent of control",PRKX (human),82%
same,"kinase still bound, per cent of control",RPS6KA4 KD2 (human),100%
same,"kinase still bound, per cent of control",STK24 (human),100%
same,"kinase still bound, per cent of control",TXK (human),100%
CN(C)C/C=C/C(=O)Nc1cccc(C(=O)Nc2ccc(Nc3nccc(-c4cccnc4)n3)cc2)c1,"kinase still bound, per cent of control",AAK1 (human),18%
same,"kinase still bound, per cent of control",ANKK1 (human),50%
same,"kinase still bound, per cent of control",AURKB (human),63%
same,"kinase still bound, per cent of control",BLK (human),100%
same,"kinase still bound, per cent of control",CDK14 (human),53%
same,"kinase still bound, per cent of control",CDK3 (human),100%
same,"kinase still bound, per cent of control",CDK4 CCND3 (human),61%
same,"kinase still bound, per cent of control",CDK8 (human),68%
same,"kinase still bound, per cent of control",CLK3 (human),84%
same,"kinase still bound, per cent of control",CSK (human),97%
same,"kinase still bound, per cent of control",EGFR (human),95%
same,"kinase still bound, per cent of control",EPHB4 (human),100%
same,"kinase still bound, per cent of control",ERBB3 (human),100%
same,"kinase still bound, per cent of control",ERBB4 (human),100%
same,"kinase still bound, per cent of control",HUNK (human),65%
same,Kd,ICK (human),54 nM
same,"kinase still bound, per cent of control",ICK (human),3.4%
same,"kinase still bound, per cent of control",IRAK3 (human),20%
same,"kinase still bound, per cent of control",KDR (human),100%
same,"kinase still bound, per cent of control",[1],67%
same,"kinase still bound, per cent of control",MAP2K3 (human),41%
same,"kinase still bound, per cent of control",MAP2K7 (human),100%
same,"kinase still bound, per cent of control",MAP3K10 (human),65%
same,"kinase still bound, per cent of control",MAP3K13 (human),100%
same,"kinase still bound, per cent of control",MAP4K4 (human),40%
same,"kinase still bound, per cent of control",MAPK4 (human),11%
same,"kinase still bound, per cent of control",MARK2 (human),69%
same,"kinase still bound, per cent of control",MET (human),100%
same,"kinase still bound, per cent of control",NEK5 (human),7.8%
same,"kinase still bound, per cent of control",NIM1 (human),100%
same,"kinase still bound, per cent of control",NTRK3 (human),97%
same,"kinase still bound, per cent of control",PDGFRA (human),67%
same,"kinase still bound, per cent of control",PDPK1 (human),93%
same,"kinase still bound, per cent of control",PIK3CB (human),94%
same,"kinase still bound, per cent of control",PIK3CD (human),100%
same,Kd,PIP4K2C (human),32 nM
same,"kinase still bound, per cent of control",PIP4K2C (human),3.3%
same,"kinase still bound, per cent of control",PKMYT1 (human),100%
same,"kinase still bound, per cent of control",PLK2 (human),74%
same,"kinase still bound, per cent of control",PRKACB (human),100%
same,"kinase still bound, per cent of control",PRKCQ (human),100%
same,"kinase still bound, per cent of control",PRKX (human),96%
same,"kinase still bound, per cent of control",RPS6KA4 KD2 (human),65%
same,"kinase still bound, per cent of control",STK24 (human),86%
same,"kinase still bound, per cent of control",TXK (human),83%
Cc1cc(NC(=O)c2cccc(NC(=O)/C=C/CN(C)C)c2)ccc1Nc1nccc(-c2cccnc2)n1,"kinase still bound, per cent of control",AAK1 (human),69%
same,"kinase still bound, per cent of control",ANKK1 (human),75%
same,"kinase still bound, per cent of control",AURKB (human),82%
same,"kinase still bound, per cent of control",BLK (human),65%
same,"kinase still bound, per cent of control",CDK14 (human),88%
same,"kinase still bound, per cent of control",CDK3 (human),100%
same,"kinase still bound, per cent of control",CDK4 CCND3 (human),60%
same,"kinase still bound, per cent of control",CDK8 (human),51%
same,"kinase still bound, per cent of control",CLK3 (human),100%
same,"kinase still bound, per cent of control",CSK (human),100%
same,"kinase still bound, per cent of control",EGFR (human),100%
same,"kinase still bound, per cent of control",EPHB4 (human),100%
same,"kinase still bound, per cent of control",ERBB3 (human),93%
same,"kinase still bound, per cent of control",ERBB4 (human),96%
same,"kinase still bound, per cent of control",HUNK (human),53%
same,"kinase still bound, per cent of control",ICK (human),92%
same,"kinase still bound, per cent of control",IRAK3 (human),85%
same,"kinase still bound, per cent of control",KDR (human),96%
same,"kinase still bound, per cent of control",[1],81%
same,"kinase still bound, per cent of control",MAP2K3 (human),95%
same,"kinase still bound, per cent of control",MAP2K7 (human),59%
same,"kinase still bound, per cent of control",MAP3K10 (human),87%
same,"kinase still bound, per cent of control",MAP3K13 (human),93%
same,"kinase still bound, per cent of control",MAP4K4 (human),92%
same,"kinase still bound, per cent of control",MAPK4 (human),81%
same,"kinase still bound, per cent of control",MARK2 (human),77%
same,"kinase still bound, per cent of control",MET (human),100%
same,"kinase still bound, per cent of control",NEK5 (human),92%
same,"kinase still bound, per cent of control",NIM1 (human),100%
same,"kinase still bound, per cent of control",NTRK3 (human),79%
same,"kinase still bound, per cent of control",PDGFRA (human),71%
same,"kinase still bound, per cent of control",PDPK1 (human),61%
same,"kinase still bound, per cent of control",PIK3CB (human),79%
same,"kinase still bound, per cent of control",PIK3CD (human),95%
same,"kinase still bound, per cent of control",PIP4K2C (human),46%
same,"kinase still bound, per cent of control",PKMYT1 (human),69%
same,"kinase still bound, per cent of control",PLK2 (human),79%
same,"kinase still bound, per cent of control",PRKACB (human),76%
same,"kinase still bound, per cent of control",PRKCQ (human),100%
same,"kinase still bound, per cent of control",PRKX (human),0%
same,"kinase still bound, per cent of control",RPS6KA4 KD2 (human),74%
same,"kinase still bound, per cent of control",STK24 (human),79%
same,"kinase still bound, per cent of control",TXK (human),96%
